# Reference: patent publication US12378201B2, “Histone demethylase inhibitors for treating cancers” (The Board of Regents of the University of Texas System, priority 2019, dated 2025)
# Experiments:
# [1] = test system: LNCaP and 22rv1 cell lines; test: SAR statements on LNCaP and 22rv1 cell lines; type: cell-based; details: LNCaP 1 μM, 22rv1 0.5 μM
# Description: All compounds were evaluated for their effects on LNCaP and 22rv1 cell lines at 1 and 0.5 μM concentrations, respectively. […] For this purpose different analogues of B-3 with chain length varying from 0 to 4 carbon were synthesized (Table 1). […] In view of the availability of a variety of commercially available benzyl amines over phenyl propyl amines and method to functionalize analogues with 1C chain compound 14c was selected for further modification.
# LnCap cells = test: Effect on LnCap cell viability; details: for viability at 1 µM: Homo sapiens, LNCaP, read-out: % Cell Viability of LnCap cells at 1 μM, 1 μM
# Description: (§1) The initial interest was to see the importance of length of side chain on B-3. […] Relative cell growth can be assessed using the MTT (3-(4,5-dimethylthiazol-2-yl)-2,5-diphenyltetrazolium bromide) assay, a colorimetric assay for assessing cell metabolic activity. Cells (1000 to 2000 cells/well) in 150 μL culture medium were seeded in wells of a 96-well plate one day before various concentrations of drugs were added. After continuing culture in the presence of the drugs for the indicated time (3-4 days), 20 μL of 5 mg/mL MTT solution (Sigma-Aldrich) was added into each well. After incubation at 37° C. for 30 min, the culture medium was removed and 100 μL of DMSO was added to dissolve MTT crystals. Plates were shaken for 15 min at room temperature and absorbance at OD590 was read by plate reader.
# 22rv1 = test: Effect on 22rv1 cell viability; details: for % Cell Viability of 22rv1 at 1 μM: at 1 μM (stated in cell)
# Description: as §1
compound,measurement,setting,value
O=C(NCCCCc1ccccc1)c1cccc(-c2cc(O)c3ncccc3c2)c1 [Compound 14a],"activity on cell lines, in words (SAR)",[1],deterioration of activity
O=C(NCC1CC1)c1cccc(-c2cc(O)c3ncccc3c2)c1 [Compound 15w],% Cell Viability of LnCap cells at 1 μM,LnCap cells,60.7%
CC(C)CNC(=O)c1ccc(CNC(=O)c2cccc(-c3cc(O)c4ncccc4c3)c2)cc1 [Compound 17f],"activity on cell lines, in words (SAR)",[1],proved useful
same,% Cell Viability of 22rv1 at 0.5 μM,22rv1,41.0%
O=C(NCc1ccc(Oc2ccc(F)cc2)cc1)c1cccc(-c2cc(O)c3ncccc3c2)c1 [Compound 16d],% Cell Viability of 22rv1 at 1 μM,22rv1,35.1%
O=C(NCc1ccccc1)c1cccc(-c2cc(O)c3ncccc3c2)c1 [Compound 14c],"activity on cell lines, in words (SAR)",[1],restoration of activity
same,% Cell Viability of 22rv1 at 0.5 μM,22rv1,"79.3% (B-3,"
O=C(NCc1ccc(C(=O)NC2CCCC2)cc1)c1cccc(-c2cc(O)c3ncccc3c2)c1 [Compound 17i],"activity on cell lines, in words (SAR)",[1],loss of activity
same,% Cell Viability of 22rv1 at 0.5 μM,22rv1,29.8%
O=C(NCc1cccc(-c2ccc(F)cc2)c1)c1cccc(-c2cc(O)c3ncccc3c2)c1 [Compound 16i],% Cell Viability of LnCap cells at 1 μM,LnCap cells,17.3%
same,% Cell Viability of 22rv1 at 0.5 μM,22rv1,42.01%
O=C(NCc1ccccc1O)c1cccc(-c2cc(O)c3ncccc3c2)c1 [Compound 15f],% Cell Viability of LnCap cells at 1 μM,LnCap cells,56.9%
O=C(NCc1ccc(C(=O)N[C@H]2CC[C@@H](C(F)(F)F)CC2)cc1)c1cccc(-c2cc(O)c3ncccc3c2)c1 [Compound 17n],"activity on cell lines, in words (SAR)",[1],17m (trans isomer) was much more active than compound 17n
NC(=O)c1ccc(CNC(=O)c2cccc(-c3cc(O)c4ncccc4c3)c2)cc1 [Compound 17b],"activity on cell lines, in words (SAR)",[1],lower activity than B-3
same,% Cell Viability of 22rv1 at 0.5 μM,22rv1,78.4%
O=C(NCc1ccc(C(=O)c2ccccc2)cc1)c1cccc(-c2cc(O)c3ncccc3c2)c1 [Compound 16k],% Cell Viability of LnCap cells at 1 μM,LnCap cells,"26.7 (B-3, ND) %"
same,% Cell Viability of 22rv1 at 0.5 μM,22rv1,6.4%
O=C(NCc1ccc(Oc2ccc(Cl)cc2)cc1)c1cccc(-c2cc(O)c3ncccc3c2)c1 [Compound 16b],% Cell Viability of 22rv1 at 1 μM,22rv1,33.2%
O=C(NCc1cccs1)c1cccc(-c2cc(O)c3ncccc3c2)c1 [Compound 15v],% Cell Viability of LnCap cells at 1 μM,LnCap cells,79.8%
O=C(NCc1cccc(C(F)(F)F)c1)c1cccc(-c2cc(O)c3ncccc3c2)c1 [Compound 15n],% Cell Viability of LnCap cells at 1 μM,LnCap cells,75.4%
O=C(NCc1ccc(C(F)(F)F)cc1F)c1cccc(-c2cc(O)c3ncccc3c2)c1 [Compound 15r],% Cell Viability of LnCap cells at 1 μM,LnCap cells,101%
O=C(NCc1cccc(-c2ccccc2)c1)c1cccc(-c2cc(O)c3ncccc3c2)c1 [Compound 16h],% Cell Viability of LnCap cells at 1 μM,LnCap cells,21.8%
same,% Cell Viability of 22rv1 at 0.5 μM,22rv1,26.9%
CCCOC(=O)c1ccc(CNC(=O)c2cccc(-c3cc(O)c4ncccc4c3)c2)cc1 [Compound 17e],"activity on cell lines, in words (SAR)",[1],better than compound 17c
same,% Cell Viability of 22rv1 at 0.5 μM,22rv1,7.9%
O=C(NCC1CCCCC1)c1cccc(-c2cc(O)c3ncccc3c2)c1 [Compound 15x],% Cell Viability of LnCap cells at 1 μM,LnCap cells,"104% (B-3, ND)"
O=C(O)c1ccc(CNC(=O)c2cccc(-c3cc(O)c4ncccc4c3)c2)cc1 [Compound 17a],viability at 1 µM,LnCap cells,97.5%
CC1Cc2ccc(-c3ccc(CNC(=O)c4cccc(-c5cc(O)c6ncccc6c5)c4)cc3)cc2O1 (stereo not drawn) [Compound 16g],% Cell Viability of LnCap cells at 1 μM,LnCap cells,30.0%
O=C(NCc1ccc(-c2ccc(C(F)(F)F)cc2)cc1)c1cccc(-c2cc(O)c3ncccc3c2)c1 [Compound 16f],% Cell Viability of LnCap cells at 1 μM,LnCap cells,44.2%
O=C(NCc1ccc(F)cc1)c1cccc(-c2cc(O)c3ncccc3c2)c1 [Compound 15a],% Cell Viability of LnCap cells at 1 μM,LnCap cells,72.8%
CN(C)c1ccc(CNC(=O)c2cccc(-c3cc(O)c4ncccc4c3)c2)cc1 [Compound 15t],% Cell Viability of LnCap cells at 1 μM,LnCap cells,66.3%
same,% Cell Viability of 22rv1 at 0.5 μM,22rv1,19.6%
O=C(NCc1ccc(C(=O)NC2CCCCCC2)cc1)c1cccc(-c2cc(O)c3ncccc3c2)c1 [Compound 17k],"activity on cell lines, in words (SAR)",[1],loss of activity
same,% Cell Viability of 22rv1 at 0.5 μM,22rv1,10.8%
O=C(NCc1ccncc1)c1cccc(-c2cc(O)c3ncccc3c2)c1 [Compound 15u],% Cell Viability of LnCap cells at 1 μM,LnCap cells,70.9%
O=C(NCc1ccc(C(=O)Nc2ccc(C(F)(F)F)cc2)cc1)c1cccc(-c2cc(O)c3ncccc3c2)c1 [Compound 17o],"activity on cell lines, in words (SAR)",[1],significantly lower activities compared to compounds 17l and 17m
COc1ccc(CNC(=O)c2cccc(-c3cc(O)c4ncccc4c3)c2)cc1 [Compound 15g],% Cell Viability of LnCap cells at 1 μM,LnCap cells,68.4%
N#Cc1ccc(CNC(=O)c2cccc(-c3cc(O)c4ncccc4c3)c2)cc1 [Compound 15s],% Cell Viability of LnCap cells at 1 μM,LnCap cells,"52.8% (B-3, ND)"
O=C(NCc1ccc(C(=O)NC2CCCCC2)cc1)c1cccc(-c2cc(O)c3ncccc3c2)c1 [Compound 17j],"activity on cell lines, in words (SAR)",[1],significant jump in activity compared to B-3
same,% Cell Viability of 22rv1 at 0.5 μM,22rv1,5.0%
COc1ccc(CNC(=O)c2cccc(-c3cc(O)c4ncccc4c3)c2)cc1OC [Compound 15l],% Cell Viability of LnCap cells at 1 μM,LnCap cells,"75.7 (B-3, ND) %"
CCOC(=O)c1ccc(CNC(=O)c2cccc(-c3cc(O)c4ncccc4c3)c2)cc1 [Compound 17d],% Cell Viability of 22rv1 at 0.5 μM,22rv1,22.7%
O=C(NCCc1ccccc1)c1cccc(-c2cc(O)c3ncccc3c2)c1 [Compound 14b],"activity on cell lines, in words (SAR)",[1],deterioration of activity
same,% Cell Viability of 22rv1 at 0.5 μM,22rv1,"83.7% (B-3,"
O=C(NCc1ccccc1C(F)(F)F)c1cccc(-c2cc(O)c3ncccc3c2)c1 [Compound 15o],% Cell Viability of LnCap cells at 1 μM,LnCap cells,94.5%
COc1cccc(CNC(=O)c2cccc(-c3cc(O)c4ncccc4c3)c2)c1 [Compound 15h],% Cell Viability of LnCap cells at 1 μM,LnCap cells,"88.5% (B-3, ND)"
O=C(NCc1ccc(Oc2ccccc2)cc1)c1cccc(-c2cc(O)c3ncccc3c2)c1 [Compound 16a],"activity on cell lines, in words (SAR)",[1],significant improvement of activity over B-3
same,% Cell Viability of 22rv1 at 1 μM,22rv1,29.5%
O=C(NCc1ccc(C(F)(F)F)cc1)c1cccc(-c2cc(O)c3ncccc3c2)c1 [Compound 15m],% Cell Viability of LnCap cells at 1 μM,LnCap cells,67.7%
O=C(NCc1ccc(C(=O)N[C@H]2CC[C@H](C(F)(F)F)CC2)cc1)c1cccc(-c2cc(O)c3ncccc3c2)c1 [Compound 17m],% Cell Viability of LnCap cells at 1 μM,LnCap cells,24.2%
same,"activity on cell lines, in words (SAR)",[1],much more active than compound 17n
O=C(NCc1ccc(Oc2ccccc2Cl)cc1)c1cccc(-c2cc(O)c3ncccc3c2)c1 [Compound 16c],% Cell Viability of 22rv1 at 1 μM,22rv1,38.1%
O=C(NCc1cccc(O)c1)c1cccc(-c2cc(O)c3ncccc3c2)c1 [Compound 15e],% Cell Viability of LnCap cells at 1 μM,LnCap cells,87.9%
O=C(Nc1ccccc1)c1cccc(-c2cc(O)c3ncccc3c2)c1 [Compound 14d],"activity on cell lines, in words (SAR)",[1],poor activity
CC(C)NC(=O)c1ccc(CNC(=O)c2cccc(-c3cc(O)c4ncccc4c3)c2)cc1 [Compound 17g],"activity on cell lines, in words (SAR)",[1],proved useful
same,% Cell Viability of 22rv1 at 0.5 μM,22rv1,41.0%
O=C(NCc1cc(C(F)(F)F)cc(C(F)(F)F)c1)c1cccc(-c2cc(O)c3ncccc3c2)c1 [Compound 15p],% Cell Viability of LnCap cells at 1 μM,LnCap cells,62.5%
O=C(NCc1ccccc1-c1ccc(CN2CCCC2=O)cc1)c1cccc(-c2cc(O)c3ncccc3c2)c1 [Compound 16j],% Cell Viability of LnCap cells at 1 μM,LnCap cells,10.9%
same,% Cell Viability of 22rv1 at 0.5 μM,22rv1,14.3%
same,"inhibition of 22rv1 cells, in words",22rv1; compared with B-3,inhibited 22rv1 cells much better than B-3
COc1cc(CNC(=O)c2cccc(-c3cc(O)c4ncccc4c3)c2)cc(OC)c1OC [Compound 15k],% Cell Viability of LnCap cells at 1 μM,LnCap cells,"98.1 (B-3, ND) %"
COC(=O)c1ccc(CNC(=O)c2cccc(-c3cc(O)c4ncccc4c3)c2)cc1 [Compound 17c],viability at 1 µM,LnCap cells,47.9%
same,viability at 0.5 µM,"22rv1; Homo sapiens, 22Rv1, read-out: % Cell Viability of 22rv1 at 0.5 μM",12.9%
